Assay results: ChEMBL document CHEMBL4732124 (Eur J Med Chem, 2021)

Columns and labels:
Hep 3B2 [1] = assay: Antiproliferative activity against human Hep3B cells assessed as cell viability at 10 uM after 48 hrs by MTT assay relative to control; format: functional; details: read-out: Activity
HepG2 [2] = assay: Antiproliferative activity against human HepG2 cells assessed as cell viability at 10 uM after 48 hrs by MTT assay relative to control; format: functional; details: read-out: Activity
Huh-7 [3] = assay: Antiproliferative activity against human Huh-7 cells assessed as cell viability at 10 uM after 48 hrs by MTT assay relative to control; format: functional; details: read-out: Activity
WI-38 = assay: Cytotoxicity against human WI-38 cells assessed as cell viability after 48 hrs by MTT assay; format: cell-based; details: WI-38, 48 h
Huh-7 [4] = assay: Antiproliferative activity against human Huh-7 cells assessed as reduction in cell viability after 48 hrs by MTT assay; format: functional, cell-based; details: Huh-7, 48 h
Hep 3B2 [5] = assay: Antiproliferative activity against human Hep3B cells assessed as reduction in cell viability after 48 hrs by MTT assay; format: functional, cell-based
HepG2 [6] = assay: Antiproliferative activity against human HepG2 cells assessed as reduction in cell viability after 48 hrs by MTT assay; format: functional, cell-based; details: HepG2, 48 h
[7] = target: T1, Vascular endothelial growth factor receptor 3 (Homo sapiens, UniProt P35916); assay: Inhibition of Flt4 (unknown origin) in presence of [gamma33]-ATP at 10 uM by liquid scintillation counting analysis relative to control
[8] = target: Dual specificity mitogen-activated protein kinase kinase 1 (Homo sapiens) (UniProt Q02750); assay: Inhibition of MEK-1 (unknown origin) in presence of [gamma33]-ATP at 10 uM by liquid scintillation counting analysis relative to control
HepG2 [9] = assay: Induction of necrosis in human HepG2 cells assessed as increase in LDH release at 1.95 uM; format: functional
[10] = target: T2, Platelet-derived growth factor receptor alpha (Homo sapiens, UniProt P16234); assay: Inhibition of PDGFRalpha (unknown origin) in presence of [gamma33]-ATP by liquid scintillation counting analysis
[11] = target: Platelet-derived growth factor receptor beta (Homo sapiens) (UniProt P09619); assay: Inhibition of PDGFRbeta (unknown origin) in presence of [gamma33]-ATP at 10 uM by liquid scintillation counting analysis relative to control
[12] = target: T3, Mast/stem cell growth factor receptor Kit (Homo sapiens, UniProt P10721); assay: Inhibition of CKIT (unknown origin) in presence of [gamma33]-ATP at 10 uM by liquid scintillation counting analysis relative to control
[13] = target: T1, Vascular endothelial growth factor receptor 3; assay: Inhibition of Flt4 (unknown origin) in presence of [gamma33]-ATP by liquid scintillation counting analysis
[14] = target: T4, Serine/threonine-protein kinase A-Raf (Homo sapiens) (UniProt P10398); assay: Inhibition of A-Raf (unknown origin) in presence of [gamma33]-ATP at 10 uM by liquid scintillation counting analysis relative to control
T4 sequence (whole entry): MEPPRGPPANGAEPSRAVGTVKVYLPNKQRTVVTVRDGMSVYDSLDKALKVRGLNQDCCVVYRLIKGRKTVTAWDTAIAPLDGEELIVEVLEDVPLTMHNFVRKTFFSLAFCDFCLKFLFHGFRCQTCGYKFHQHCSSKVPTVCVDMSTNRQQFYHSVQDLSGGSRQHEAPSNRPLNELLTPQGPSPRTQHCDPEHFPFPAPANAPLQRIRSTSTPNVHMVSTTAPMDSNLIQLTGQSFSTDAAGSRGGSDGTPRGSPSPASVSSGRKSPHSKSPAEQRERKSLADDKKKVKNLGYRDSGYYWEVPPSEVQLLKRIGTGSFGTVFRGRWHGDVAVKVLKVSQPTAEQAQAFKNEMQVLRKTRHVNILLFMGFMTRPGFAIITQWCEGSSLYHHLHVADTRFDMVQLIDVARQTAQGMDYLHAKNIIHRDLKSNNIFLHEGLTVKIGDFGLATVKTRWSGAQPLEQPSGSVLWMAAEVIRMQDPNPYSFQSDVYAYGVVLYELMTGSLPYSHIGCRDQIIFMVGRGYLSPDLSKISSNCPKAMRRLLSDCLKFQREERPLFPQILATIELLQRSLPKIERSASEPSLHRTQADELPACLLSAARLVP

[15] = target: RAF proto-oncogene serine/threonine-protein kinase (Homo sapiens) (UniProt P04049); assay: Inhibition of C-Raf (unknown origin) in presence of [gamma33]-ATP at 10 uM by liquid scintillation counting analysis relative to control
HepG2 [16] = assay: Induction of apoptosis in human HepG2 cells assessed as increase in caspase 3/7 activity at 1.95 uM; format: functional
[17] = target: T5, Vascular endothelial growth factor receptor 2 (Homo sapiens, UniProt P35968); assay: Inhibition of KDR (unknown origin) in presence of [gamma33]-ATP by liquid scintillation counting analysis
hERG (KCNH2) = hERG (KCNH2) (Homo sapiens, UniProt Q12809); assay: Potency index, ratio of E-4031 IC50 to compound IC50 for inhibition of human ERG; details: read-out: Ratio IC50
[18] = target: T5, Vascular endothelial growth factor receptor 2; assay: Inhibition of VEGFR2 autophosphorylation in VEGF-stimulated human HepG2 cells after 2 hrs Western blot analysis; details: dose 1-3 µM
[19] = target: T3, Mast/stem cell growth factor receptor Kit; assay: Inhibition of CKIT (unknown origin) in presence of [gamma33]-ATP by liquid scintillation counting analysis
[20] = target: T2, Platelet-derived growth factor receptor alpha; assay: Inhibition of PDGFRalpha (unknown origin) in presence of [gamma33]-ATP at 10 uM by liquid scintillation counting analysis relative to control

T2 sequence (P16234 whole entry): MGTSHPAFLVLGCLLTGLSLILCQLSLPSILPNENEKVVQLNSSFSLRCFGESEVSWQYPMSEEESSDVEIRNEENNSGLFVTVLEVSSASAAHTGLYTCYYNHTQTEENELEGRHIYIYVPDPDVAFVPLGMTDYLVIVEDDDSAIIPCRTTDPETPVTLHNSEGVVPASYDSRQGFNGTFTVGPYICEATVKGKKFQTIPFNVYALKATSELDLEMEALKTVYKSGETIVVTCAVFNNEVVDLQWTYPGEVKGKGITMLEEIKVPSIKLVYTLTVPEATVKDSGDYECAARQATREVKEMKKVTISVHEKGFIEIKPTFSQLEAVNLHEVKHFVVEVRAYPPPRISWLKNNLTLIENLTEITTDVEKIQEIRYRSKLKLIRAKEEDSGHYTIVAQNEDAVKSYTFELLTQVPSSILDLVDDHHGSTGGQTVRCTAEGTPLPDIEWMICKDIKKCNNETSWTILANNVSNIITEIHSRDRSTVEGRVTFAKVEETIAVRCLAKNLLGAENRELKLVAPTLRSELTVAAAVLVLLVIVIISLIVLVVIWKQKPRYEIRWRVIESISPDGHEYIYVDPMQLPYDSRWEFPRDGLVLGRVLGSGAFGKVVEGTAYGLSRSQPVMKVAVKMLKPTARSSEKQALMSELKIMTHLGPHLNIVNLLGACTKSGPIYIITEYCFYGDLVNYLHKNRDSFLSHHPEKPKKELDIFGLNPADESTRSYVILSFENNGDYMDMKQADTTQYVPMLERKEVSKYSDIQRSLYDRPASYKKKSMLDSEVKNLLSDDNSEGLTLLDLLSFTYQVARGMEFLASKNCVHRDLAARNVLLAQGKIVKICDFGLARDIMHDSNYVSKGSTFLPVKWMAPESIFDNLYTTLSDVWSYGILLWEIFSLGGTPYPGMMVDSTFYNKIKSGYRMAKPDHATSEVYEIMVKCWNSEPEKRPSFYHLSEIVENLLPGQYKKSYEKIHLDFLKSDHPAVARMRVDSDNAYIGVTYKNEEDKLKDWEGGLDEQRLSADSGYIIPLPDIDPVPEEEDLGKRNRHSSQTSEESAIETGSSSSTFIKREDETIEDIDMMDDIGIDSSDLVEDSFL
T3 sequence (P10721 whole entry): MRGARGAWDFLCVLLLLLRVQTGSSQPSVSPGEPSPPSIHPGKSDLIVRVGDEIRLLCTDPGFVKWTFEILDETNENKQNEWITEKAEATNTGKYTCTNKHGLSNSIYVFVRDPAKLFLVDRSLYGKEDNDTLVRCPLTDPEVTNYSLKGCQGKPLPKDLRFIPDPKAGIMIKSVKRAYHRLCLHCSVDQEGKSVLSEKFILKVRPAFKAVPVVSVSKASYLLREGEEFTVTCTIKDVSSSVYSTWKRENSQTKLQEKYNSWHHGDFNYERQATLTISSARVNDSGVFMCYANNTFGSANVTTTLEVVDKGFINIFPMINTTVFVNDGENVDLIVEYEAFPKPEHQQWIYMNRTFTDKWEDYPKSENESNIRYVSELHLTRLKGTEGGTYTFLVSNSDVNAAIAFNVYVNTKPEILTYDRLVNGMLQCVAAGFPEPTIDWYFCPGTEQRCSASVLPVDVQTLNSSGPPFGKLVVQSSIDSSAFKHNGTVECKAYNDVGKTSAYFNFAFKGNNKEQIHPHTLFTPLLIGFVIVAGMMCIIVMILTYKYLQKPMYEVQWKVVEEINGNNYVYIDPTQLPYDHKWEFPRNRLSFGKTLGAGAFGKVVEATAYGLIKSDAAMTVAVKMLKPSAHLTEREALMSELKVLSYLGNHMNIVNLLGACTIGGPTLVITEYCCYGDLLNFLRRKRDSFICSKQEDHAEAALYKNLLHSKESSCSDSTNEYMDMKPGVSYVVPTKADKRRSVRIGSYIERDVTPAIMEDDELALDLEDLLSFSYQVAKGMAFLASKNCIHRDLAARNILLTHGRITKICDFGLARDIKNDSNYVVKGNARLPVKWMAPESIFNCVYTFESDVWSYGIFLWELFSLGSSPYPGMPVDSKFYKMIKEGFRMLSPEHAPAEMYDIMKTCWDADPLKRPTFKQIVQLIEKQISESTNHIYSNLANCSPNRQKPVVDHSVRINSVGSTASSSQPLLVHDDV
Sequence of Dual specificity mitogen-activated protein kinase kinase 1 (Homo sapiens) (Q02750 whole entry): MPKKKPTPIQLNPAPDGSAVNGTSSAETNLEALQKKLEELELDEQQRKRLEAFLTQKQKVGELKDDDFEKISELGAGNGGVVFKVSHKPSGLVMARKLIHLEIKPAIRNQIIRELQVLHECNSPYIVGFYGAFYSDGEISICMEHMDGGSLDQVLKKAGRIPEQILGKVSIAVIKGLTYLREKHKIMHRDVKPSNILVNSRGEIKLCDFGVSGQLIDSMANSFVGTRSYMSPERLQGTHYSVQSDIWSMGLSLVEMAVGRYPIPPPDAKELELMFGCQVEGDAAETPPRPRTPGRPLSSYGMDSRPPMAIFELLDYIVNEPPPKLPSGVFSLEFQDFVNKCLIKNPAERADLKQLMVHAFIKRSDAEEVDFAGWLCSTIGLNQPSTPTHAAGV
T1 sequence (P35916 whole entry): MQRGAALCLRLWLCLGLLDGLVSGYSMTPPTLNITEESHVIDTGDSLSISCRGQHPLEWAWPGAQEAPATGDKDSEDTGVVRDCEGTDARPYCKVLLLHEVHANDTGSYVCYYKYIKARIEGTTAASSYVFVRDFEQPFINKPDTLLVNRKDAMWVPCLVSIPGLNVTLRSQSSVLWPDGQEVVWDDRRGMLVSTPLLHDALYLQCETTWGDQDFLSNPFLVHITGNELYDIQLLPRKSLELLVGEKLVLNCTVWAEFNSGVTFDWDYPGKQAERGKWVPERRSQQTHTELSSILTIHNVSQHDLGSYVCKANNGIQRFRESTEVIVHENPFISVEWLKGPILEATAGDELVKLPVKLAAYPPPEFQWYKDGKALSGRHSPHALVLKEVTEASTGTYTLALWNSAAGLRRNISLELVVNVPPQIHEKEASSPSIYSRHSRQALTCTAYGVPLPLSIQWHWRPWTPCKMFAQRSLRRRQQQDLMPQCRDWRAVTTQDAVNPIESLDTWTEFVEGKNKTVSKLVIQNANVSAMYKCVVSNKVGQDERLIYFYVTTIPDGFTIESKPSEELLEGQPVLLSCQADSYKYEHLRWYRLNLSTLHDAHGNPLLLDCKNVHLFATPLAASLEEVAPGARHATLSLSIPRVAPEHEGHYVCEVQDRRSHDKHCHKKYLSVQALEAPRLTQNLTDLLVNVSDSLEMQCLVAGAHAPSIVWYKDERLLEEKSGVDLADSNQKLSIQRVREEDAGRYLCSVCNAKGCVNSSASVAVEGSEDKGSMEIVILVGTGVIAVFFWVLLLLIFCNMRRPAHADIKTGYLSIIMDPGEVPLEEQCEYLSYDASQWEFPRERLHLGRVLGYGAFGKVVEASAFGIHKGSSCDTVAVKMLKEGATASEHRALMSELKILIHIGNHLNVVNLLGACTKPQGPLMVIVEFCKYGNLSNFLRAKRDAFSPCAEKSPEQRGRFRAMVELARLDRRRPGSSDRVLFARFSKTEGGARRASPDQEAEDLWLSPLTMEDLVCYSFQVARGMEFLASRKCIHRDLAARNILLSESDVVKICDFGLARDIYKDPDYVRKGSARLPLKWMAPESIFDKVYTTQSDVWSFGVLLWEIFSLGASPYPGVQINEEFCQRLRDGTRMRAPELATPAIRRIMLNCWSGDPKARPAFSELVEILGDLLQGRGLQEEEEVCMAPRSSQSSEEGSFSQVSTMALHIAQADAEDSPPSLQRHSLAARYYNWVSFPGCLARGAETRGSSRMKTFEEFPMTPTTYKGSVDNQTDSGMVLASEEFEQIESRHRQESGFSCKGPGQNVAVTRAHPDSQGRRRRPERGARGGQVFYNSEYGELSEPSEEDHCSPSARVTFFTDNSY
Sequence of Platelet-derived growth factor receptor beta (Homo sapiens) (P09619 whole entry): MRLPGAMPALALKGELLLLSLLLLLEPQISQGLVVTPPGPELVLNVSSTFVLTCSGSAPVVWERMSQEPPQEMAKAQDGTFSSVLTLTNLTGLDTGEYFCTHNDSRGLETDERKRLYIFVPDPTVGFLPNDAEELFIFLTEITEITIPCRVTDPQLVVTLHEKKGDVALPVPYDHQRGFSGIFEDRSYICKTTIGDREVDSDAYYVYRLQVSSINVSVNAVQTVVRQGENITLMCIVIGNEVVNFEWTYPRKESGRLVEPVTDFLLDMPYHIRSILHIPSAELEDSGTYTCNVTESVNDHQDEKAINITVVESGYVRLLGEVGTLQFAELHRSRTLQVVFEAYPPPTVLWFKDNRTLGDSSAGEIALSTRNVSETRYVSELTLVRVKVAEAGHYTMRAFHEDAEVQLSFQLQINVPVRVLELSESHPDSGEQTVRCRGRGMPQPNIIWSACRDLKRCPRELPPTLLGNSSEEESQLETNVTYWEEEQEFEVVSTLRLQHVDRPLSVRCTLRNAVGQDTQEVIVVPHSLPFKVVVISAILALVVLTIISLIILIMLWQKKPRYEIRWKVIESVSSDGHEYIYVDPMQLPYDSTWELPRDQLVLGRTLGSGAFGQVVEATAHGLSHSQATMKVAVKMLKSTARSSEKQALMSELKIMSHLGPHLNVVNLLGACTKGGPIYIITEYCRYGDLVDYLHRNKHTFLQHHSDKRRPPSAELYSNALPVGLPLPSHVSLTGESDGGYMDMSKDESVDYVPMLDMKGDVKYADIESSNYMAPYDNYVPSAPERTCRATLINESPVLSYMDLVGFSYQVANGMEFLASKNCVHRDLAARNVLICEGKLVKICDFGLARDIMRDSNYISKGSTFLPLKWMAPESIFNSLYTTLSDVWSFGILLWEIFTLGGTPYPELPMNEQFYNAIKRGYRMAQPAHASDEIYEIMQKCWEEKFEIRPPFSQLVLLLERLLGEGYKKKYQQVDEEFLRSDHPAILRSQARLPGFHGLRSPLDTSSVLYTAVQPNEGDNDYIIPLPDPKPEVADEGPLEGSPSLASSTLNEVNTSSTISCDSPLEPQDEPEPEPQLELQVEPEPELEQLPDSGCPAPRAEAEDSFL

| Compound | viability at 10 µM (Hep 3B2 [1]) [%] | viability at 10 µM (HepG2 [2]) [%] | viability at 10 µM (Huh-7 [3]) [%] | IC50 (WI-38) [µM] | also measured |
| --- | --- | --- | --- | --- | --- |
| CNC(=O)c1cc(-n2ccc3cc(NC(=S)Nc4ccc(Cl)c(Cl)c4)ccc32)ccn1 | 86 | 79 | 89 |  |  |
| CNC(=O)c1cc(-n2ccc3cc(NC(=O)c4ccc(Cl)c(Cl)c4)ccc32)ccn1 | 79 | 80 | 61 |  |  |
| CNC(=O)c1cc(-n2ccc3cc(NC(=O)c4cc(C(F)(F)F)cc(C(F)(F)F)c4)ccc32)ccn1 | 111 | 90 | 77 |  |  |
| CNC(=O)c1cc(-n2ccc3cc(NC(=O)Nc4ccccc4)ccc32)ccn1 | 66 | 82 | 74 |  |  |
| CNC(=O)c1cc(-n2ccc3cc(NS(=O)(=O)c4cc(C(F)(F)F)cc(C(F)(F)F)c4)ccc32)ccn1 | 92 | 96 | 98 |  |  |
| CNC(=O)c1cc(-n2ccc3cc(NC(=O)c4ccccc4)ccc32)ccn1 | 29 | 99 | 105 |  |  |
| CNC(=O)c1cc(-n2ccc3cc(NC(=O)Nc4ccc(Cl)c(Cl)c4)ccc32)ccn1 | 46 | 57 | 43 | 23.1 | IC50 (Huh-7 [4]): 7.96 µM; IC50 (Hep 3B2 [5]): 7.94 µM |
| CNC(=O)c1cc(-n2ccc3cc(NC(=O)Nc4cc(C(F)(F)F)cc(C(F)(F)F)c4)ccc32)ccn1 | 73 | 55 | 30 | > 30 | IC50 (Huh-7 [4]): 5.01 µM; IC50 (Hep 3B2 [5]): 29.8 µM |
| CNC(=O)c1cc(-n2ccc3cc(NC(=S)Nc4cccc(C(F)(F)F)c4)ccc32)ccn1 | 99 | 81 | 109 |  |  |
| CNC(=O)c1cc(-n2ccc3cc(NC(=O)c4ccc(Cl)c(C(F)(F)F)c4)ccc32)ccn1 | 54 | 32 | 42 |  |  |
| CNC(=O)c1cc(-n2ccc3cc(NC(=O)Nc4ccc(Cl)c(C(F)(F)F)c4)ccc32)ccn1 | 53 | 55 | 40 | 26.7 | IC50 (Huh-7 [4]): 15.4 µM; IC50 (Hep 3B2 [5]): 12.3 µM |
| CNC(=O)c1cc(-n2ccc3cc(NS(=O)(=O)c4ccc(Cl)c(Cl)c4)ccc32)ccn1 | 92 | 97 | 94 |  |  |
| CNC(=O)c1cc(-n2ccc3cc(NC(=O)c4ccc(F)c(C(F)(F)F)c4)ccc32)ccn1 | 59 | 67 | 40 |  |  |
| CNC(=O)c1cc(-n2ccc3cc(NC(=O)c4ccc(N5CCOCC5)c(C(F)(F)F)c4)ccc32)ccn1 | 53 | 72 | 46 | 8.48 | IC50 (HepG2 [6]): 237 µM |
| CNC(=O)c1cc(-n2ccc3cc(NS(=O)(=O)c4ccccc4)ccc32)ccn1 | 93 | 98 | 105 |  |  |
| CNC(=O)c1cc(-n2ccc3cc(NC(=O)Nc4ccc(N5CCOCC5)c(C(F)(F)F)c4)ccc32)ccn1 | 27 | 47 | 28 | > 30 | IC50 (HepG2 [6]): 9.35 µM; IC50 (Huh-7 [4]): 5.6 µM |
| CNC(=O)c1cc(-n2ccc3cc(NC(=O)Nc4ccc(N5CCN(C)CC5)c(C(F)(F)F)c4)ccc32)ccn1 | 92 | 27 | 20 | > 30 | inhibition [7]: 93.5%; IC50 (HepG2 [6]): 1.95 µM; inhibition [8]: 11.5%; Activity (HepG2 [9]): 21.5%; IC50 [10]: > 5 µM; inhibition [11]: 47.5%; inhibition [12]: 70.5%; IC50 [13]: 0.0957 µM; inhibition [14]: -4%; inhibition [15]: -0.5%; IC50 (Huh-7 [4]): 4.31 µM; Activity (HepG2 [16]): 67.45%; IC50 [17]: 0.173 µM; selectivity ratio (hERG (KCNH2)): 3720; inhibition [18]: Dose-dependent effect; IC50 [19]: 5 µM; IC50 (Hep 3B2 [5]): 8.01 µM; inhibition [20]: 71.5% |
| CNC(=O)c1cc(-n2ccc3cc(NC(=O)Nc4cccc(C(F)(F)F)c4)ccc32)ccn1 | 58 | 76 | 68 |  |  |
| CNC(=O)c1cc(-n2ccc3cc(NC(=O)Nc4ccc(F)c(C(F)(F)F)c4)ccc32)ccn1 | 49 | 67 | 65 |  |  |
| CNC(=O)c1cc(Oc2ccc(NC(=O)Nc3ccc(Cl)c(C(F)(F)F)c3)cc2)ccn1 [SORAFENIB] | 33 | 35 | 21 | > 30 | IC50 (HepG2 [6]): 7.22 µM; inhibition [8]: 37.7%; inhibition [11]: 99.1%; inhibition [12]: 65.8%; inhibition [14]: 99%; IC50 (Huh-7 [4]): 7.55 µM; IC50 (Hep 3B2 [5]): 8.62 µM; inhibition [20]: 99.4% |
| CNC(=O)c1cc(-n2ccc3cc(NC(=S)Nc4ccccc4)ccc32)ccn1 | 64 | 100 | 121 |  |  |
| CNC(=O)c1cc(-n2ccc3cc(NC(=S)Nc4ccc(Cl)c(C(F)(F)F)c4)ccc32)ccn1 | 40 | 60 | 76 | 28.8 | IC50 (Huh-7 [4]): 21.5 µM; IC50 (Hep 3B2 [5]): 13.9 µM |
| CNC(=O)c1cc(-n2ccc3cc(NC(=O)c4cccc(C(F)(F)F)c4)ccc32)ccn1 | 72 | 34 | 77 | 6.5 | IC50 (HepG2 [6]): 2.67 µM |
| CNC(=O)c1cc(-n2ccc3cc(NS(=O)(=O)c4cccc(C(F)(F)F)c4)ccc32)ccn1 | 84 | 88 | 94 |  |  |
| CNC(=O)c1cc(-n2ccc3cc(NC(=S)Nc4cc(C(F)(F)F)cc(C(F)(F)F)c4)ccc32)ccn1 | 55 | 53 | 40 |  |  |
| CNC(=O)c1cc(-n2ccc3cc(NS(=O)(=O)c4ccc(Cl)c(C(F)(F)F)c4)ccc32)ccn1 | 92 | 97 | 101 |  |  |
